Experimental findings from PMC12257073 (Cancer Research Communications, 2025) are described below.

For one data set, the system named is TP53. Description: TP53 variant allele frequency by serial targeted next-generation sequencing. The format is in vivo, human. On the procedure:
Mutations in germline and serial bone marrow or blood samples were determined by targeted next-generation sequencing (NGS). NGS aligned read files are available in the NCBI’s Sequence Read Archive under accession PRJNA1236309. See Supplementary Methods for details.
Genomic DNA was isolated from cryopreserved cells with QIAmp DNA Mini Kit (Qiagen) and fragmented using ME220 Focused-ultrasonicator (Covaris; SCR_019818). Libraries were generated using xGen™ DNA Lib Prep MC UNI kit and target capture was done using xGen AML Cancer Hybridization Panel in conjunction with a 3 gene spike-in pool for ZRSR2, AXL, and ASXL2 (Integrated DNA Technologies). DNA library preparations were performed according to the manufacturer’s instructions and sequenced on an Illumina Novaseq (OSUCCC Genomics Shared Resource) (SCR_016387). Sequenced reads were aligned to the GRCh38 genome build using the Burrows-Wheeler Aligner (BWA) (SCR_010910). Picard Tools was used to perform UMI-consensus calling on the aligned reads. The Genome Analysis Toolkit (GATK) (SCR_001876) was used to realign insertions and deletions in the aligned reads and to perform base quality score recalibration for those realigned regions. GATK’s MuTect2 (SCR_026692) was used to perform variant calling. After variant calling, variants were annotated using SnpEff (SCR_005191) and vcfanno (SCR_024372) along with the dbsnp (SCR_002338), COSMIC (SCR_002260), and gnomad variant databases (SCR_014964). The Mucor3 algorithm was used as the baseline for integrative mutation assessment. Visual inspection of all variants was carried out using Integrative Genomics Viewer v.2.8 (Broad Institute).

A further data set concerns p-H2AX. Description: p-H2AX in peripheral blood by spectral flow cytometry. The class given is in vivo, human. To be noted: cycle 1, CR (n = 2), CRh/CRi/MLFS (n = 8), SD, treatment failure or early death (n = 7). On the procedure: In brief, Ficoll-enriched peripheral blood mononuclear cells were stained for external markers, fixed, permeabilized, and then stained for p-H2AX (Thermo Fisher Scientific; AB_2896984). Sample analysis was performed in the Ohio State University Comprehensive Cancer Center Flow Cytometry Shared Resource and Immune Monitoring & Discovery Platform using the Cytek Aurora. Data were analyzed using FCS Express version 7 (De Novo Software).
Based on the observation that TP-0903 upregulates p-H2AX, a marker of DNA damage, in TP53-mutated cell lines ([24]), we hypothesized that p-H2AX could serve as a clinical biomarker for TP-0903 activity. Analysis of peripheral blood from days 1 and 10 of cycle 1 was performed by spectral flow cytometry. The mean fluorescence intensity was measured for p-H2AX, and then values at day 10 were normalized using baseline values collected on day 1 (Supplementary Fig. S4).
For orientation: A flow cytometer gives signals particle by particle.

Data set [1] can be described thus: Treatment duration and reasons off treatment.

In the case of `CN1CCN(Cc2ccc(Nc3ncc(Cl)c(Nc4ccccc4S(=O)(=O)N(C)C)n3)cc2)CC1.O=C(O)C(O)C(O)C(=O)O.O=C(O)C(O)C(O)C(=O)O` [TP-0903, 2-(5-chloro-2-(4-((4-methylpiperazin-1-yl)methyl)phenylamino)pyrimidin-4-yl)amino-N,N-dimethylbenzene-1-sulfonamide di-tartrate salt], the “Change in TP53 VAF” value in the data set with TP53 (patients who achieved CR, n = 5, P < 0.01) is on record as “significantly decreased”; in the data set with TP53 (patients who achieved CRh/CRi/MLFS, n = 7, P < 0.01), “significantly decreased”; in the data set with TP53 (patients who had SD, treatment failure, or early death, n = 3) it was “not significantly changed”. The “Change in p-H2AX mean fluorescence intensity, day 10 normalized to day 1” value in the data set with p-H2AX is “no significant change”. Besides, the “Treatment discontinuation: AEs” value in data set [1] (group 1, 37 mg TP-0903 + decitabine) was 13%; in data set [1] (group 2, 25 mg TP-0903 + decitabine) it was 17%. Moreover, the “Off treatment for reason: Adverse event” value in data set [1] (group 1, 37 mg, N = 15) is given as 2 (13.3) n (%); in data set [1] (group 2, 25 mg, N = 12), 2 (16.7) n (%); in data set [1] (overall, N = 27), 4 (14.8) n (%).
